The source of these data is ChEMBL document CHEMBL4699471, “Design and synthesis of purine connected piperazine derivatives as novel inhibitors of Mycobacterium tuberculosis” (2020).

Converted amounts (≈) assume the structure as drawn.

The test has as its system Mycobacterium tuberculosis. The test can be described thus: Antimycobacterial activity against Mycobacterium tuberculosis H37Rv assessed as inhibition of bacterial growth by MABA assay. It counts as functional. For orientation: The colour change of resazurin is a common sign of viable cells or microbes.

As usually defined, the MIC is the smallest concentration in the dilution series that meets the test's criterion for growth inhibition. `CC#CCn1c(N2CCN(S(=O)(=O)c3ccccc3)CC2)nc2c1c(=O)n(Cc1ccc(F)c(F)c1)c(=O)n2C`: the minimum inhibitory concentration (MIC) amounted to 44 µM (≈ 25 µg/mL).
The value for `CC#CCn1c(N2CCN(C(=S)Nc3cccc(Cl)c3)CC2)nc2c1c(=O)n(Cc1ccc(F)c(F)c1)c(=O)n2C` was 7.17 µM (≈ 4.29 µg/mL); that for `CC#CCn1c(N2CCN(C(=O)Nc3ccc(C(F)(F)F)cc3)CC2)nc2c1c(=O)n(Cc1ccc(F)c(F)c1)c(=O)n2C` was 5.08 µM (≈ 3.13 µg/mL); that for `CC#CCn1c(N2CCN(C(=O)c3cccnc3C(F)(F)F)CC2)nc2c1c(=O)n(Cc1ccc(F)c(F)c1)c(=O)n2C` was 41.6 µM (≈ 25 µg/mL).
The value for `CC#CCn1c(N2CCN(C(=S)Nc3ccc(Cl)cc3)CC2)nc2c1c(=O)n(Cc1ccc(F)c(F)c1)c(=O)n2C` was 34.5 µM (≈ 20.6 µg/mL); that for `O=C(O)c1cn(C2CC2)c2cc(N3CCNCC3)c(F)cc2c1=O` [CIPROFLOXACIN] was 0.94 µM (≈ 0.311 µg/mL); that for `CC#CCn1c(N2CCN(C(=O)c3c(F)cc(OC)cc3F)CC2)nc2c1c(=O)n(Cc1ccc(F)c(F)c1)c(=O)n2C` was 41.8 µM (≈ 25 µg/mL).
For `CC#CCn1c(N2CCN(C(=O)C3Cc4ccccc4N3)CC2)nc2c1c(=O)n(Cc1ccc(F)c(F)c1)c(=O)n2C` (stereo not drawn), the MIC worked out at 43.6 µM (≈ 25 µg/mL).
The value for `CC#CCn1c(N2CCN(C(=O)Nc3cccc(C(F)(F)F)c3)CC2)nc2c1c(=O)n(Cc1ccc(F)c(F)c1)c(=O)n2C` was 20.3 µM (≈ 12.5 µg/mL); that for `CC#CCn1c(N2CCN(C(=S)Nc3ccccc3Br)CC2)nc2c1c(=O)n(Cc1ccc(F)c(F)c1)c(=O)n2C` was 39 µM (≈ 25.1 µg/mL); that for `NNC(=O)c1ccncc1` [ISONIAZID] was 0.66 µM (≈ 0.0905 µg/mL).
Take `CC#CCn1c(N2CCN(C(=O)Nc3ccccc3Cl)CC2)nc2c1c(=O)n(Cc1ccc(F)c(F)c1)c(=O)n2C`: the minimum inhibitory concentration (MIC) was 49.2 µM (≈ 28.7 µg/mL).
The value for `CC#CCn1c(N2CCN(C(=O)Nc3ccc(SC)cc3)CC2)nc2c1c(=O)n(Cc1ccc(F)c(F)c1)c(=O)n2C` was 10.3 µM (≈ 6.13 µg/mL).
On to `CC#CCn1c(N2CCN(C(=O)COc3ccccc3)CC2)nc2c1c(=O)n(Cc1ccc(F)c(F)c1)c(=O)n2C`, for which the minimum inhibitory concentration (MIC) turned out to be 44.5 µM (≈ 25 µg/mL).
With `CC#CCn1c(N2CCN(C(=O)Cc3ccc(F)cc3)CC2)nc2c1c(=O)n(Cc1ccc(F)c(F)c1)c(=O)n2C`, the minimum inhibitory concentration (MIC) is 44.3 µM (≈ 25 µg/mL).
The value for `CC#CCn1c(N2CCN(S(=O)(=O)c3cccc(Cl)c3)CC2)nc2c1c(=O)n(Cc1ccc(F)c(F)c1)c(=O)n2C` was 12.5 µM (≈ 7.51 µg/mL).
The value for `CC#CCn1c(N2CCN(C(=O)c3sccc3Cl)CC2)nc2c1c(=O)n(Cc1ccc(F)c(F)c1)c(=O)n2C` was 43.7 µM (≈ 25 µg/mL).
Turning to `CC#CCn1c(N2CCN(C(=O)C3CCCCN3C(=O)OC(C)(C)C)CC2)nc2c1c(=O)n(Cc1ccc(F)c(F)c1)c(=O)n2C` (stereo not drawn), the MIC was determined as 39.1 µM (≈ 25 µg/mL).
The value for `CC#CCn1c(N2CCN(C(=O)c3nccnc3Cl)CC2)nc2c1c(=O)n(Cc1ccc(F)c(F)c1)c(=O)n2C` was 44 µM (≈ 25 µg/mL); that for `CC#CCn1c(N2CCN(C(=O)c3ccc(C(F)(F)F)cc3)CC2)nc2c1c(=O)n(Cc1ccc(F)c(F)c1)c(=O)n2C` was 51.5 µM (≈ 30.9 µg/mL).
As to `C=CCNC(=O)N1CCN(c2nc3c(c(=O)n(Cc4ccc(F)c(F)c4)c(=O)n3C)n2CC#CC)CC1`, the MIC turned out to be 52.4 µM (≈ 26.8 µg/mL).
As for `CC#CCn1c(N2CCN(C(=S)Nc3c(F)cccc3Cl)CC2)nc2c1c(=O)n(Cc1ccc(F)c(F)c1)c(=O)n2C`, the MIC is 40.6 µM (≈ 25 µg/mL).
Consider `CC#CCn1c(N2CCN(C(=S)Nc3ccccc3Cl)CC2)nc2c1c(=O)n(Cc1ccc(F)c(F)c1)c(=O)n2C`, for which the MIC stood at 41.9 µM (≈ 25 µg/mL).
Regarding `CC#CCn1c(N2CCN(C(=O)C3CCC3)CC2)nc2c1c(=O)n(Cc1ccc(F)c(F)c1)c(=O)n2C`, the minimum inhibitory concentration (MIC) came to 49 µM (≈ 25 µg/mL).
Regarding `CC#CCn1c(N2CCN(C(=O)C34CC5CC(CC(C5)C3)C4)CC2)nc2c1c(=O)n(Cc1ccc(F)c(F)c1)c(=O)n2C`, the MIC turned out to be 43.4 µM (≈ 25.6 µg/mL).
The value for `CC#CCn1c(N2CCN(C(=O)CCc3ccc(F)cc3)CC2)nc2c1c(=O)n(Cc1ccc(F)c(F)c1)c(=O)n2C` was 43.2 µM (≈ 25 µg/mL); that for `CC#CCn1c(N2CCN(C(=O)c3cccc4ccccc34)CC2)nc2c1c(=O)n(Cc1ccc(F)c(F)c1)c(=O)n2C` was 53.3 µM (≈ 31 µg/mL); that for `CC#CCn1c(N2CCN(C(=O)c3csc(Br)n3)CC2)nc2c1c(=O)n(Cc1ccc(F)c(F)c1)c(=O)n2C` was 40.5 µM (≈ 25.1 µg/mL).
The value for `CC[C@@H](CO)NCCN[C@@H](CC)CO` [ETHAMBUTOL] was 7.63 µM (≈ 1.56 µg/mL); that for `CC#CCn1c(N2CCN(C(=O)C3CCC(C(F)(F)F)CC3)CC2)nc2c1c(=O)n(Cc1ccc(F)c(F)c1)c(=O)n2C` (stereo not drawn) was 16.4 µM (≈ 9.97 µg/mL).
The value for `CC#CCn1c(N2CCN(C(=O)c3cccc(F)c3)CC2)nc2c1c(=O)n(Cc1ccc(F)c(F)c1)c(=O)n2C` was 45.4 µM (≈ 25 µg/mL); that for `CC#CCn1c(N2CCN(C(=O)Nc3ccc(Cl)cc3)CC2)nc2c1c(=O)n(Cc1ccc(F)c(F)c1)c(=O)n2C` was 41 µM (≈ 23.9 µg/mL).
Regarding `CC#CCn1c(N2CCN(C(=O)c3ccccc3C(F)(F)F)CC2)nc2c1c(=O)n(Cc1ccc(F)c(F)c1)c(=O)n2C`, the MIC turned out to be 41.6 µM (≈ 25 µg/mL).
